Entries after “also recorded” stand apart in the source; their conditions may differ.
Assays:
[1] = literature, cited from earlier work; for testicular myeloperoxidase activity: acutely; for testicular myeloperoxidase activity / long term spermatogenesis: animal models of testicular torsion
[2] = Renal scar formation and trichrome collagen quantification after acute pyelonephritis; assay type: in vivo, C3H/HeOuJ mice; details: 21 days following completion of antibiotic therapy; varenicline plus ceftriaxone vs ceftriaxone alone; p=0.001
Method: To initiate pyelonephritis, the bladder was catheterized with a 24-gauge angiocatheter and a total volume of 100 μL of a phosphate-buffered saline containing […] colony forming units (CFU) of CFT073 uropathogenic Escherichia coli (UPEC) was then instilled.
Tissues were preserved in formalin for 72 hours then stored in ethanol. Sections were cut to a 5 μm thickness and stained with H&E or Masson trichrome. Photographs were obtained at 20× resolution with Olympus VS120 virtual slide microscope system. The images were then analyzed with ImageJ Fiji software in order to quantify collagen deposition as previously described (Chen 2017). As collagen deposition would be expected as long-term sequelae of IRI, the trichrome stains of the long-term specimen were examined. All artifacts from the staining process as well as gross collecting system were cropped from these images prior to analysis. A color deconvolution plugin was used to separate the trichrome images into the separate colors. Analysis was performed based upon the percentage of deposition of collagen in the green image compared to the overall area of the kidneys.
Tissues harvested 21 days following completion of antibiotic therapy were subjected to trichome staining to assess for global collagen deposition. After removing artifacts (to ensure only parenchyma was included in the analysis), a color deconvolution plugin was used for ImageJ to divide the images into the respective three colors of the trichrome stain. A threshold was set and collagen was quantified as a percentage of green color in respect to the area of the entire kidney (FIG. 13).

[3] = tested on: CFT073 uropathogenic Escherichia coli (UPEC); details: kidneys harvested after the final dose of antibiotics; ceftriaxone 250 mg/kg s.c. twice daily for 5 days
Method: As previously described, female C3H/HeOuJ mice were utilized due to a high incidence of vesicoureteral reflux (VUR) (Li 2017; Murawski 2010; Bowen 2013) and reliable creation of pyelonephritis following bladder inoculation. To initiate pyelonephritis, the bladder was catheterized with a 24-gauge angiocatheter and a total volume of 100 μL of a phosphate-buffered saline containing 108 colony forming units (CFU) of CFT073 uropathogenic Escherichia coli (UPEC) was then instilled. Following the initial bladder inoculation, pyelonephritis was allowed to progress untreated for 5 days.
Following the initial 5-day incubation period, 2 mice were sacrificed to confirm infection. The remaining mice were then treated with ceftriaxone alone (control) or ceftriaxone with varenicline (treatment). All mice received 250 mg/kg of subcutaneous ceftriaxone administered twice daily for a period of 5 days. Animals in the treatment group also received a concurrent twice-daily dose of intraperitoneal varenicline (1 mg/kg) during the first 48 hours of treatment. […] Animals were sacrificed at 14 days following the initial bladder inoculation to assess short-term outcomes, while long-term outcomes were assessed 30 days following initial bladder inoculation.

[4] = tested on: pro-fibrotic genes Col1, Col3, Vim, SMA; assay: RT-PCR of pro-fibrotic markers in testis 30 days after torsion; assay type: in vivo, CD1 mice; details: for relative expression of collagen 1 (Col1) / relative expression of collagen 3 (Col3) / relative expression of smooth muscle actin (Sma) / relative expression of vimentin (Vim): 30 days following torsion, vs untreated
Method: (§1) Mice underwent testicular torsion as previously described (Lysiak 2001). Briefly, mice were anesthetized with isoflurane over a heating pad. The right testis was delivered through a low scrotal incision and rotated counterclockwise 720 degrees to induce ischemia for 2 hours. […] All animals were injected with long-acting buprenorphine (0.1 mg/kg) for long-term pain control prior to being recovered from anesthesia. Mice were euthanized either 18 hours or 30 days following torsion. Mice kept for 30 days after surgery were weighed on a weekly basis.
(§2) Cytisine (Sigma-Aldrich, St. Louis, MO) was administered intraperitoneally at a dose of 0.1 μg/gram either 1 hour before torsion or 1 hour after torsion (1 hour prior to detorsion). Varenicline ([…]) was administered as an intraperitoneal injection one hour after the onset of torsion and then continued every 12 hours for a total of 4 doses.
RNA was isolated from testis tissue using RNEasy mini kit (Qiagen, Hilden, Germany) using the manufacturer's protocol. RNA concentration was measured with Nanodrop 8000 (Thermo Scientific, Waltham, MA). cDNA was synthesized using Superscript First-Strand Synthesis system for RT-PCR (Invitrogen, Carlsbad, CA) on a GeneAmp PCR System 9700 (Applied Biosystems, Foster City, CA) Real-Real-time PCR was performed using QuantStudio 7 Flex (Applied Biosystems, Foster City, CA). Software Quantstudio Real-Time PCR Software (Thermo Fisher Scientific, Waltham, MA). TaqMan Gene Expression Assays (Applied Biosystems, Foster City, CA). Standard TaqMan primers were used for Col1, Col3, Vim, SMA.

[5] = Masson trichrome staining and ImageJ quantification of collagen in testis 30 days after torsion; assay type: in vivo, CD1 mice; details: 30 days following torsion, vs untreated, cytisine p<0.01, varenicline p<0.0001
Method: as §1, §2
Testis tissue was harvested and stored in 70% ethanol. Fixation, embedding, sectioning, and staining were performed by the research pathology core at George Washington University. Sections were cut at a thickness of […]. Tissues were stained for H&E or Masson trichrome. Photographs were scanned at 20× resolution with Olympus VS120 virtual slide microscope system. TIF images were analyzed with ImageJ Fiji software as previously described (Caetano, Fronza et al. 2016). The color deconvolution plugin was used to perform ImageJ analysis on an area measuring 3000 square pixels. Automatic thresholding was performed. The amount of collagen in each area is expressed as the percentage of blue pixels in the image area taken as an average of 3 non-overlapping measurements.

[6] = tested on: oxidative stress within the testis; assay: Myeloperoxidase activity and reduced glutathione levels in testis after testicular torsion; assay type: in vivo, CD1 mice; details: cytisine an hour prior to onset of torsion; vs untreated controls
Method: as §1, with “Mice were euthanized either 18 hours or 30 days following torsion.” left out
as §2
Tissues were harvested and stored at −80° C. until use. Glutathione reductase activity was measured by use of glutathione reductase assay Kit (Sigma-Aldrich, St. Louis, MO). Testis tissue was homogenized in 5% sulfosalicylic Acid (SSA) solution. Samples were then centrifuged and supernatant was reserved. Supernatants were added to a reaction mixture containing 95 mM potassium phosphate buffer, pH 7.0, 0.95 mM EDTA, 0.038 mg/mL NADPH, 0.031 mg/mL DTNB, 0.115 units/mL glutathione reductase, and 0.24% SSA. Absorbance at 412 nm was recorded. Glutathione results were expressed as nm GSH per mL sample.
Following an ischemic event, the initial inflammatory response is characterized by an increase in oxidative stress and production of reactive oxygen species. In order to determine the effect of cytisine treatment on the level of reactive oxygen species (ROS) following testicular torsion, testicular levels of myeloperoxidase (MPO), a marker of neutrophil activation, and reduced glutathione (GSH) levels (an indirect measure of oxidative stress within the testis) were measured.

[7] = tested on: CD45+ immune cells in the torsed testis; assay: Flow cytometry of CD45+ immune cell infiltrate in testis after testicular torsion; assay type: in vivo, CD1 mice; details: cytisine 0.1 μg/gram i.p. 1 hour before torsion; 18 hours after reperfusion; vs mice without cytisine; P<0.0001
Method: (§3) Unilateral testicular torsion was induced in mature male CD1 mice by rotating the right testicle 720 degrees for 2 hours. Treatment with cytisine or varenicline was initiated one hour prior or one hour after the creation of testicular torsion. Testes were harvested 18 hours and 30 days following reperfusion. The acute inflammatory response was quantified with FACS analysis, […], reduced glutathione levels and quantification of the expression of IRI markers. Long term (30 day) outcomes were assessed by histologic evaluation, quantification of the expression of pro-fibrotic genes and measurement of testicular weight.
Mice underwent testicular torsion as previously described (Lysiak 2001). Briefly, mice were anesthetized with isoflurane over a heating pad. […]
Eighteen hours after reperfusion of the testis in the cytisine group and 48 hours after reperfusion in the varenicline group, bilateral testes were harvested, homogenized and digested with digestion solution containing 0.5% FBS, 20 mM HEPES, RPMI Medium, 0.057 U/ml DNase I, 1 mg/ml collagenase b. Cells were washed, counted with a hemocytometer and 1 million then diluted to 1 million cells per mL. […] For each sample 300,000 live cells were counted using BD FACSCalibur (BD Biosciences, San Jose, CA) and analyzed with FlowJo 9.0 software (TreeStar, Ashland, OR).

[8] = Testis weight vs contralateral testis 30 days after torsion (testicular atrophy); assay type: in vivo, CD1 mice; details: 30 days after reperfusion, vs untreated
Method: as §3, §1, §2
The degree of testicular atrophy was determined by comparing the weight of the torsed testis to the contralateral control testis 30 days after reperfusion.

α7nAChR = α7nAChR (Homo sapiens, UniProt P36544); details: peak concentrations in smokers / levels with therapeutic dosing in humans (Campling 2013); cited from earlier work
Sequence of α7nAChR (P36544 23-502): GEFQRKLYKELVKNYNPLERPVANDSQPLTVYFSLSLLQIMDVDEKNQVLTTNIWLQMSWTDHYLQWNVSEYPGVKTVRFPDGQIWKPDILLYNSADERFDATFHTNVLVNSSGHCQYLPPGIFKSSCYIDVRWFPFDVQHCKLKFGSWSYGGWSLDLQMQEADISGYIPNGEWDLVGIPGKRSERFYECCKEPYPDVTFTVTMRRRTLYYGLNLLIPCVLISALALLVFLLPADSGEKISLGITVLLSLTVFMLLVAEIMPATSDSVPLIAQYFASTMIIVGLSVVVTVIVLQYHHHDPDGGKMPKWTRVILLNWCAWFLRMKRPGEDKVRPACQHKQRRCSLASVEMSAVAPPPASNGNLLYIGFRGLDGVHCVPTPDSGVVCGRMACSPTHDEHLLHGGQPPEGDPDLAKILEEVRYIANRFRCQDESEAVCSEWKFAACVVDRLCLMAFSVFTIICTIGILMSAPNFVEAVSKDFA

[9] = cited from earlier work
[10] = tested on: adhesion molecules E-selectin, ICAM-1 and VCAM-1; details: Saeed 2005; cited from earlier work
[11] = administered prior to testicular reperfusion
[12] = administration prior to warm renal ischemia (Gigliotti 2013)

COc1cc(C(C)=O)ccc1O [Apocynin]
testicular myeloperoxidase activity [1]: decrease testicular myeloperoxidase activity
long term spermatogenesis [1]: preserve long term spermatogenesis

Cc1ccc(-c2ncc(Cl)cc2-c2ccc(S(C)(=O)=O)cc2)cn1 [Etoricoxib]
apoptosis [1, 11]: decrease apoptosis
oxidative stress [1, 11]: decrease

[Zn] [Zinc]
testicular myeloperoxidase activity [1]: decrease testicular myeloperoxidase activity
long term spermatogenesis [1]: preserve long term spermatogenesis

CO/N=C(\C(=O)N[C@@H]1C(=O)N2C(C(=O)O)=C(CSc3nc(=O)c(=O)[nH]n3C)CS[C@H]12)c1csc(N)n1 [ceftriaxone]
collagen deposition in the kidneys (percentage of green pigment per area of entire kidney) [2]: significantly higher
bacterial growth from cultured kidneys [3]: lack of bacterial growth

O=c1cccc2n1C[C@@H]1CNC[C@H]2C1 [cytisine]
relative expression of collagen 1 (Col1) [4]: reduced the expression; also recorded: significantly decreased
relative expression of collagen 3 (Col3) [4]: reduced the expression; also recorded: significantly decreased
relative expression of smooth muscle actin (Sma) [4]: reduced the expression; also recorded: significantly decreased
relative expression of vimentin (Vim) [4]: reduced the expression; also recorded: significantly decreased
relative expression of collagen 1 (Col1) ([4]; listed as Cytisine): significantly decreased
relative expression of collagen 3 (Col3) ([4]; listed as Cytisine): significantly decreased
relative expression of smooth muscle actin (Sma) ([4]; listed as Cytisine): significantly decreased
relative expression of vimentin (Vim) ([4]; listed as Cytisine): significantly decreased
expression of pro-fibrotic genes / genetic markers of testicular fibrosis ([4]; long term (30 day) outcome, genes not itemised): decreased expression of pro-fibrotic genes
collagen content of testis (trichrome staining, percentage of collagen) [5]: untreated group had significantly higher collagen content; also recorded: reduced histologic evidence of testicular fibrosis
collagen content of testis (trichrome staining, percentage of collagen) ([5]; listed as Cytisine): significantly higher percentage of collagen in the untreated animals
myeloperoxidase activity in testis [6]: decreased levels of myeloperoxidase activity
reduced glutathione levels in testis [6]: increased levels reduced glutathione
CD45+ immune cells in the torsed testis [7]: significantly decreased CD45+ immune cells; also recorded: decreases the number of CD45+ cells
testicular atrophy (weight of torsed testis vs contralateral control testis) ([8]; drug given an hour after the onset of torsion): limited long term testicular atrophy
testicular atrophy (weight of torsed testis vs contralateral control testis) ([8]; drug given an hour after the onset of torsion, listed as Cytisine): limited testicular atrophy
testicular atrophy (weight of torsed testis vs contralateral control testis) ([8]; drug given an hour prior to torsion, p<0.05): significantly less testicular atrophy; also recorded: decreased testicular atrophy
activation of α7nAChR at clinically reached concentrations (α7nAChR): do not activate α7nAChR
acute immune infiltrate after warm renal ischemia [9, 12]: reduced the acute immune infiltrate
long term renal fibrosis after warm renal ischemia [9, 12]: prevented long term renal fibrosis
long term renal function after warm renal ischemia [9, 12]: preserved long term renal function

CN1CCC[C@H]1c1cccnc1 [nicotine]
expression of adhesion molecules such as E-selectin, ICAM-1 and VCAM-1 [10]: decreasing the expression of adhesion molecules
activation of α7nAChR at clinically reached concentrations (α7nAChR): do not activate α7nAChR
protection of the kidney from IRI ([9]; mouse, after renal artery ligation (Sadis 2007, Yeboah 2008)): protects the mouse kidney from IRI
